{
  "source": "patent US20230323420A1",
  "about": "“PERFUSION MEDIUM” (Boehringer Ingelheim International GmbH, priority 2017, published 2023)",
  "key": {"[1]": {"test_system": "CHO-DG44 cells expressing a recombinant monoclonal IgG1 antibody", "test": "High density perfusion culture in 2 L bioreactors, 1.6 mM ferric citrate (Example 2)", "assay_type": "cell-based, Chinese hamster", "settings": "for decrease of cell bleed rate: 1.6 mM ferric citrate background media, over 4 days (FIG. 5B)", "protocol": "A high density perfusion culture of CHO-DG44 cells expressing a recombinant monoclonal IgG1 antibody was treated with high iron (Fe) and vitamin A (retinyl acetate) to assess the effect on cell proliferation, and by extension, the cell bleed. A bench-scale experiment was performed in three 2 L perfusion bioreactors with 0.2 μm PES hollow fibers (Spectrum Labs) on alternating tangential flow (ATF) at 0.8 L/min flow rate. Bioreactors were maintained at: 37° C., 60% dissolved oxygen, 348 RPM agitation, and a target pH of 7.0 (pH target was not always achieved). A CHO DG44 cell line expressing a monoclonal antibody was inoculated into the bioreactors at approximately 1e6 cells/mL in proprietary chemically defined, serum-free inoculation medium at a 1:4 dilution of conditioned to fresh inoculation media. This culture was grown in batch mode (no flow in or out) for 2 days, at which time perfusion was started with BI's perfusion media (manufactured by SAFC). […] During the growth phase (d0-d10 post-inoculation) there was no cell bleed, allowing the viable cell density (VCD) to reach desired level. On day 8, ferric citrate (Sigma-Aldrich; CAS 3522-50-7) was added to the perfusion medium at a concentration of 1.6 mM, targeting a pH of 6.9. Once optimal cell density was reached on day 10, cell bleed was initiated to maintain constant VCD (steady state). The calculation governing the cell bleed rate was based on maintaining the Incyte biomass capacitance probe value (Hamilton) which corresponded to the target VCD.\nAfter steady state was established for several days, retinyl acetate (Sigma-Aldrich, CAS 127-47-9) was introduced to two of the bioreactors, with one bioreactor acting as control with no retinyl acetate (Table 4). Retinyl acetate was dissolved in absolute ethanol and sterile-filtered with a 0.2 μm filter to make a sterile stock solution of 152 mM before addition to media bags for final concentrations of 50 μM, 100 μM, 150 μM, or 200 μM retinyl acetate (in four respective bags). Each treatment bioreactor then received retinyl acetate at a first concentration between day 15 and 20 (50 μM or 100 μM) and at a second concentration between days 20-24 (150 or 200 μM) as shown in Table 4. On day 15 and 20 for each treatment, the bag of new treatment media was attached to the media inlet line of the bioreactors. […]\nSamples were taken near-daily for: VCD and viability (Vi-Cell, Beckman-Coulter), osmolality (Advanced Instrument Inc), pH, CO2, and O2 (RapidLab 1240 BGA, Siemens), and metabolite readings (Cedex BioHT, Roche). […]"}, "[2]": {"test_system": "Chinese hamster ovary (CHO) DG44 cells", "test": "Cell cycle analysis of deep well culture (propidium iodide, flow cytometry)", "assay_type": "cell-based", "settings": "400 μM retinyl acetate, 3.1 mM ferric citrate, cultivation for 7 days; control cells 62.6%", "protocol": "Cell cycle analysis was performed on days 1 and 7 of deep well culture. Cells were grown in medium containing 3.1 mM ferric citrate and 400 μM retinyl acetate or control medium and fixed on days 1 and 7 by a wash in cold PBS before suspension in 70% ethanol. Cells were stored at −20° C. until analysis. 1e5 cells per sample were stained with propidium iodide with RNase (BD Biosciences) for DNA content and analyzed by flow cytometry on a Guava easyCyte flow cytometer (EMD Millipore)."}, "[3]": {"test_system": "CHO-DG44 cells", "test": "Cell cycle analysis of perfusion bioreactor culture (Example 2)", "assay_type": "cell-based, Chinese hamster", "settings": "150 μM and 200 μM retinyl acetate, 1.6 mM ferric citrate, compared to control, data not shown", "protocol": "Samples were taken near-daily for: VCD and viability (Vi-Cell, Beckman-Coulter), osmolality (Advanced Instrument Inc), pH, CO2, and O2 (RapidLab 1240 BGA, Siemens), and metabolite readings (Cedex BioHT, Roche). DeltaV was used to control and Finesse TruBio software was used to record and monitor cell bleed, permeate, and media pump rates. Cell samples were taken throughout the experiment and stored at −20° C. in 70% EtOH after treatment with Accumax (Innovative Cell Technologies) for later cell cycle analysis using propidium iodide stain with RNase (BD Biosciences) on a Guava easyCyte flow cytometer (EMD Millipore)."}, "[4]": {"test_system": "Chinese hamster ovary (CHO) DG44 cells expressing a recombinant monoclonal IgG1 antibody", "test": "Deep well plate model of perfusion (small scale culture): viable cell density, viability, titer", "assay_type": "cell-based", "protocol": "Axygen 24 well pre-sterilized deep-well plates (Neta Scientific Inc, Hainesport, NJ) were used as a scale-down model of perfusion. A starting cell density of 20×10^6 cells/mL (3 mL per well) was targeted to simulate the high cell density growth phase of perfusion. Chinese hamster ovary (CHO) DG44 cells expressing a recombinant monoclonal IgG1 antibody were grown in proprietary chemically defined, serum-free perfusion media at 33° C. with 5% CO2, 80% humidity, and 200 rpm shaking speed in an incubator with a 5.0 cm orbit diameter for 4 or 8 days. A 0.1 mL sample was taken for cell count daily prior to media exchange. Medium exchanges were performed daily by centrifuging the plate at 1200 rpm for 5 minutes, removing 2 mL supernatant, and resuspending cells in 2.1 mL fresh, pre-warmed media at 37° C. (in early days, this equates to a ⅔ volume exchange, whereas in later days the cell pellet grows such that 2 mL is nearly the entire liquid volume, equating to a 1 VVD exchange). Supernatant was saved to perform process analytics.\nRetinyl acetate was tested in concentrations ranging from 5 μM to 600 μM in proprietary chemically defined, serum-free perfusion medium with 230 μM or 3.1 mM ferric citrate. A 152 mM stock solution of retinyl acetate was prepared by dissolving 50 mg/mL retinyl acetate powder to prepare a 152 mM stock (Sigma-Aldrich; CAS 127-47-9) in absolute ethanol, or 75 mg/mL retinyl acetate for 228 mM stock, for each experimental run; after thorough mixing, the solutions were sterile-filtered with 0.22 μm Steriflips (EMD Millipore). This stock was diluted down further with perfusion medium to provide a working stock. Media aliquot concentrations were 30% higher than the targeted final concentration in each treatment to compensate for residual media left in the well and cell pellet volume. The media were prepared in proprietary chemically defined, serum-free media (either 230 μM or 3.1 mM Fe background) as shown in Table 2. Control condition had no retinyl acetate supplement; ethanol control added the solvent with no retinyl acetate at the level equivalent to the greatest amount for each experiment. These media aliquots were used in the daily media exchanges as described above.\nViability and viable cell density were measured by Vi-CELL Cell Counter using the Trypan blue dye exclusion method (Beckman Coulter Life Sciences, Indianapolis, IN). Titer, metabolites, and lactate dehydrogenase (LDH) levels were measured using a Cedex BioHT (Roche Diagnostics GmbH, Mannheim, Germany). These titer measurements had been previously verified to be in agreement with in house HPLC Protein A methods. Osmolality was measured with a 2020 Multi-Sample Micro Osmometer (Advanced Instruments, Inc, Norwood, MA) based on freezing point depression.\nA small scale cell culture using CHO DG44 cells expressing a recombinant monoclonal IgG1 antibody was treated with ferric citrate and retinyl acetate at different concentrations to assess the effect on cell viability, essentially as described for the small scale culture in Example 1."}, "[5]": {"test_system": "Chinese hamster ovary (CHO) DG44 cells expressing a recombinant monoclonal IgG1 antibody", "test": "Deep well plate model of perfusion (small scale culture): viable cell density, viability, titer", "assay_type": "cell-based", "remark": "listed apart in the source"}, "[6]": {"test_system": "CHO DG44 cells expressing a recombinant monoclonal IgG1 antibody", "test": "High density perfusion culture in bioreactors, 350 μM ferric citrate (Example 3)", "assay_type": "cell-based, Chinese hamster", "protocol": "A high density perfusion culture of CHO DG44 cells expressing a recombinant monoclonal IgG1 antibody was treated with low iron (Fe) and vitamin A (retinyl acetate) to assess the effect on cell proliferation, and the cell bleed. A bench-scale experiment was performed essentially as described above for Example 2. During the growth phase (d0-d10 post-inoculation) there was no cell bleed, allowing the viable cell density (VCD) to reach desired level. On day 8, ferric citrate (Sigma-Aldrich; CAS 3522-50-7) was added to the perfusion media at a concentration of 350 μM. Once optimal cell density was reached on day 10, cell bleed was initiated to maintain constant VCD (steady state). The calculation governing the cell bleed rate was based on maintaining the Incyte biomass capacitance probe value (Hamilton company) which corresponded to the target VCD.\nOn day 25 day, retinyl acetate (Sigma-Aldrich, CAS 127-47-9) was introduced to one of the bioreactors, with one bioreactor acting as control with no retinyl acetate. Retinyl acetate was dissolved in absolute ethanol and sterile-filtered with a 0.2 μm filter to make a sterile stock solution of 152 mM before addition to media bags for final concentrations of 100 μM retinyl acetate. Retinyl acetate was then added to the bioreactor on day 25. The bag of new treatment media was attached to the media inlet line of the bioreactors and in order to ensure an instantaneous achievement of target retinyl acetate concentration within the vessels (as opposed to the gradual increase which would occur via introduction through the perfusion medium), a bolus addition of 1.3 mL retinyl acetate stock solution was added directly to the treatment bioreactor via injection through a sterile addition line. Samples were taken and analyzed as explained for Example 2."}, "[7]": {"test_system": "CHO cultures", "settings": "cited from earlier work"}, "[8]": {"settings": "100 μM retinyl acetate, 350 μM ferric citrate, days 25 to 29 (FIG. 7)"}},
  "data": [
    {"smiles": "CC(=O)OC/C=C(C)/C=C/C=C(C)/C=C/C1=C(C)CCCC1(C)C", "note": "[retinyl acetate]", "values": [
      {"measurement": "bleed flow rate", "setting": "[1]; 50 μM or 100 μM retinyl acetate, 1.6 mM ferric citrate, days 15 to 20, compared to control (FIG. 5A)", "result": "reduced in a dose-dependent manner"},
      {"measurement": "viability", "setting": "[1]; 50 μM to 200 μM retinyl acetate, 1.6 mM ferric citrate (FIG. 4)", "result": "not affected"},
      {"measurement": "decrease of cell bleed rate", "setting": "[1]; 150 μM vitamin A", "result": "approximately 45%"},
      {"measurement": "decrease of cell bleed rate", "setting": "[1]; 200 μM vitamin A", "result": "roughly 70%"},
      {"measurement": "cells in the G0/G1 phase", "setting": "[2]", "result": 86, "unit": "%"},
      {"measurement": "cell percentage in G0/G1 phase", "setting": "[3]", "result": "increase in cell percentage in G0/G1 phase"},
      {"measurement": "viable cell density", "setting": "[4]; 5 μM to 20 μM retinyl acetate, 3.1 mM ferric citrate (FIG. 1A)", "result": "reduced the viable cell density in a dose-dependent manner"},
      {"measurement": "viable cell density", "setting": "[4]; 40 μM to 100 μM retinyl acetate, 3.1 mM ferric citrate (FIG. 2A)", "result": "reduced the viable cell density in a dose-dependent manner"},
      {"measurement": "cell proliferation", "setting": "[4]; 60 μM to 400 μM retinyl acetate, 3.1 mM ferric citrate, small scale studies", "result": "inhibit cell proliferation"},
      {"measurement": "growth / viable cell density", "setting": "[4]; 200 μM and 400 μM retinyl acetate, 3.1 mM ferric citrate (FIG. 3A)", "result": "further inhibited growth resulting in a lower viable cell density"},
      {"measurement": "viable cell density", "setting": "[4]; 600 μM retinyl acetate, 3.1 mM ferric citrate (FIG. 3A)", "result": "sharply declined from about day 2"},
      {"measurement": "effect on viable cell density", "setting": "[4]; 200-400 μM retinyl acetate, 230 μM ferric citrate, data not shown", "result": "present, but less pronounced"},
      {"measurement": "decrease in growth rate", "setting": "[4]; low ferric citrate (230 μM) versus high ferric citrate (3.1 mM), same retinyl acetate level", "result": "less pronounced in low ferric citrate"},
      {"measurement": "cell specific productivity (qp)", "setting": "[4]; retinyl acetate with 3.1 mM ferric citrate, data not shown", "result": "unaffected"},
      {"measurement": "viability", "setting": "[4]; same retinyl acetate concentrations (200 μM), 3.1 mM ferric citrate (FIG. 8)", "result": "unaffected"},
      {"measurement": "SGR (specific growth rate)", "setting": "[5]; 2 μM retinyl acetate, data not shown", "result": "no effect on SGR was observed"},
      {"measurement": "specific growth rate", "setting": "[5]; 350 μM ferric citrate and 200 μM retinyl acetate, data not shown", "result": "decrease in specific growth rate"},
      {"measurement": "viability", "setting": "[5]; Chinese hamster, 5 days, 200 μM", "result": "negative effect on viability after 5 days"},
      {"measurement": "cell bleed", "setting": "[6]; [8]", "result": "markedly decreased"},
      {"measurement": "specific growth rate", "setting": "[6]; [8]", "result": "markedly decreased"},
      {"measurement": "viability", "setting": "[6]; 100 μM retinyl acetate, 350 μM ferric citrate, versus 350 μM ferric citrate alone (FIG. 6)", "result": "same high viability"},
      {"measurement": "reduction of cell bleed rate", "setting": "[6]; 100 μM vitamin A, 350 μM ferric citrate background media, over 5 days (FIG. 7A)", "result": "approximately 50%"}
    ]},
    {"smiles": "CC1=C(/C=C/C(C)=C/C=C/C(C)=C/CO)C(C)(C)CCC1", "note": "[retinol]", "values": [
      {"measurement": "cytotoxicity", "setting": "[7]; higher retinol concentrations (above 10 to 50 μM)", "result": "cytotoxic"},
      {"measurement": "growth and protein synthesis", "setting": "[7]; retinol 10 to 50 μM", "result": "inhibitory effect on growth and protein synthesis"}
    ]}
  ]
}
